Reference: PubChem BioAssay AID330 (DTP/NCI, 2004)
Inconclusive results and toxic doses are left out.

System: P388 leukemia ip, CD2F1 mice, survival T/C
Experiment: NCI In Vivo Anticancer Drug Screen. Data for tumor model P388 Leukemia (intraperitoneal) in CD2F1 (CDF1) mice
Settings: endpoint: median survival time, higher = longer survival
Summary of the method: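 Mice carrying the transplanted tumor received test compound or vehicle. Survival was recorded in each group, and the value is the treated-group measurement divided by that of the vehicle-treated control group.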

[1] = dose: 50.0 mg/kg/injection, schedule: Q01DX009 (ip), vehicle: saline with Tween-80
[2] = dose: 60.0 mg/kg/injection, schedule: Q01DX005 (ip), vehicle: Klucel (hydroxypropylcellulose) (HPC)
[3] = dose: 120.0 mg/kg/injection, schedule: Q01DX005 (ip), vehicle: Klucel (hydroxypropylcellulose) (HPC)
[4] = dose: 100.0 mg/kg/injection, schedule: Q04DX002 (ip), vehicle: saline with Tween-80
[5] = dose: 400.0 mg/kg/injection, schedule: Q04DX002 (ip), vehicle: saline with Tween-80
[6] = dose: 50.0 mg/kg/injection, schedule: Q01DX005 (ip), vehicle: Klucel (hydroxypropylcellulose) (HPC)
[7] = dose: 100.0 mg/kg/injection, schedule: Q01DX005 (ip), vehicle: Klucel (hydroxypropylcellulose) (HPC)
[8] = dose: 200.0 mg/kg/injection, schedule: Q01DX005 (ip), vehicle: Klucel (hydroxypropylcellulose) (HPC)

`COc1cc(/C=C/CO)cc(OC)c1OC1OC(CO)C(O)C(O)C1O` (stereo unspecified) was tested, and the T/C (dose: 10.0 mg/kg/injection, schedule: Q01DX009 (ip), vehicle: saline + alcohol) was 100 % of control, the T/C (dose: 20.0 mg/kg/injection, schedule: Q01DX009 (ip), vehicle: saline + alcohol) was 110 % of control and the T/C (dose: 40.0 mg/kg/injection, schedule: Q01DX009 (ip), vehicle: saline + alcohol) was 97 % of control. For the same compound, the T/C (dose: 80.0 mg/kg/injection, schedule: Q01DX009 (ip), vehicle: saline + alcohol) was 100 % of control.
In the case of `O=C(CCl)Nc1nccs1`, the T/C (dose: 12.5 mg/kg/injection, schedule: Q01DX009 (ip), vehicle: saline with Tween-80) is reported as 111 % of control, the T/C (dose: 25.0 mg/kg/injection, schedule: Q01DX009 (ip), vehicle: saline with Tween-80) is reported as 112 % of control and the T/C [1] is reported as 103 % of control. For the same compound, the T/C (dose: 100.0 mg/kg/injection, schedule: Q01DX009 (ip), vehicle: saline with Tween-80) was 116 % of control.
`CS(=O)(=O)/N=C/N(CCc1ccccc1)c1ccccc1` was tested, and the T/C [2] was 101 % of control, the T/C [3] was 99 % of control and the T/C (dose: 240.0 mg/kg/injection, schedule: Q01DX005 (ip), vehicle: Klucel (hydroxypropylcellulose) (HPC)) was 99 % of control.
`CCOC(=O)C(CC(C)C)NC(C)=O` (stereo unspecified) was tested, and the T/C [4] was 100 % of control, the T/C (dose: 200.0 mg/kg/injection, schedule: Q04DX002 (ip), vehicle: saline with Tween-80) was 105 % of control and the T/C [5] was 114 % of control.
In the case of `COc1ccc2sc3c(C)ccc(NCCN(C)C)c3c(=O)c2c1`, the T/C [1] is reported as 115 % of control.
In the case of `CN(C)c1nnnn1Cc1ccccc1`, the T/C [6] is reported as 97 % of control, the T/C [7] is reported as 97 % of control and the T/C [8] is reported as 106 % of control.
With `C=C(COC(C)=O)CC(CC(=C)CC(OC(C)=O)Sc1ccccc1)S(=O)(=O)c1ccccc1` (stereo unspecified) the T/C (dose: 60.0 mg/kg/injection, schedule: Q01DX005 (ip), vehicle: saline + Tween-80 + alcohol) was 106 % of control, the T/C (dose: 120.0 mg/kg/injection, schedule: Q01DX005 (ip), vehicle: saline + Tween-80 + alcohol) was 104 % of control and the T/C (dose: 240.0 mg/kg/injection, schedule: Q01DX005 (ip), vehicle: saline + Tween-80 + alcohol) was 104 % of control.
For `O=C1CC(=O)N(CN2C(=O)CC(=O)NC2=S)C(=S)N1`, the T/C [6] was 100 % of control, the T/C [7] was 103 % of control and the T/C [8] was 105 % of control.
For `CCCC(O)C(C(=O)OCC)C(=O)OCC` (stereo unspecified), the T/C (dose: 50.0 mg/kg/injection, schedule: Q01DX009 (ip), vehicle: saline) was 95 % of control, the T/C (dose: 100.0 mg/kg/injection, schedule: Q01DX009 (ip), vehicle: saline) was 95 % of control and the T/C (dose: 200.0 mg/kg/injection, schedule: Q01DX009 (ip), vehicle: saline) was 94 % of control.
`CCOC(=O)c1nnc(-c2ccccc2)nc1Cl` was tested, and the T/C [2] was 103 % of control and the T/C [3] was 100 % of control.
For `CC(=O)Oc1cc(OCCCc2ccc(F)cc2)cc2ccc3ccccc3c12`, the T/C [4] was 92 % of control and the T/C [5] was 92 % of control.
